Experimental data published in patent US20070207989A1, “DITERPENE DERIVATIVES FOR THE TREATMENT OF CARDIOVASCULAR, CANCER AND INFLAMMATORY DISEASES” (SaviPu Pharmaceuticals, priority 2006, published 2007).
One block for each compound: values may come before it.

Experiments:
[1] = system: endothelin receptor; details: cited from earlier work
[2] = target: T1, ETB receptor (Homo sapiens, UniProt P24530); details: cited from earlier work
T1 sequence (P24530 27-442): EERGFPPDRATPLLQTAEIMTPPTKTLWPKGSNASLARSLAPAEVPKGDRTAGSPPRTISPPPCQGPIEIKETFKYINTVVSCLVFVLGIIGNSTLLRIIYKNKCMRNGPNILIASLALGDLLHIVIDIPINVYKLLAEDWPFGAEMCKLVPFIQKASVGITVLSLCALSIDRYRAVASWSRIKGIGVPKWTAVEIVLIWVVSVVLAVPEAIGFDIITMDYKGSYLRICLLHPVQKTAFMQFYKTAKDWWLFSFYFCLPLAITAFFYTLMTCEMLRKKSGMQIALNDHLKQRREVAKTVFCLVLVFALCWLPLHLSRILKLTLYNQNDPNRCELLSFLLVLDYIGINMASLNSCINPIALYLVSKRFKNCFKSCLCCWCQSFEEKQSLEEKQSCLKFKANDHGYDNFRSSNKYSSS

[3] = target: T2, ETA receptor (Homo sapiens, UniProt P25101); details: cited from earlier work
T2 sequence (P25101 21-427): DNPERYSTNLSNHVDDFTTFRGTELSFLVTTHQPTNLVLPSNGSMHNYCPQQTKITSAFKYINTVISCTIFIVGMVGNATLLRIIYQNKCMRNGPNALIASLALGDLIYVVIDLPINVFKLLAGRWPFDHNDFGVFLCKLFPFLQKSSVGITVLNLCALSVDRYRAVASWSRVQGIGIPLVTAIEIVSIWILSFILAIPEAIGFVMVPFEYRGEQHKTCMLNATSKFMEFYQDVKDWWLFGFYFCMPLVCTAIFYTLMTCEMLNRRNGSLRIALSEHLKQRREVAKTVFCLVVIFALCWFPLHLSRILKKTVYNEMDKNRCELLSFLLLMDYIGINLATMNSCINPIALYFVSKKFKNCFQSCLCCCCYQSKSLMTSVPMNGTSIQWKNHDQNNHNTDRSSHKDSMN

[4] = system: carcinoma cell lines; details: four cell lines; cited from earlier work
[5] = target: T3, endothelin receptor A (ETA) (Homo sapiens, UniProt P25101); assay: inhibition of endothelin receptor A (ETA)
T3 sequence (P25101 21-427): T2 sequence (P25101 21-427)

[6] = system: tumor cell lines; assay: inhibition of tumor cell lines; type: cell-based
[7] = system: NF-κB; assay: inhibition of NF-κB / NF-κB binding to κB consensus DNA
[8] = system: NF-κB; details: cited from earlier work
[9] = system: human cancer cell lines; details: cited from earlier work

SMILES: Cc1noc(NS(=O)(=O)c2cccc3c(N(C)C)cccc23)c1C [BMS-1 82874]
endothelin receptor antagonist activity / binding (in words) [1]: active

SMILES: COc1cccc(Oc2c(NS(=O)(=O)c3ccc(C(C)(C)C)cc3)ncnc2OCCO)c1 [Ro-46-2005]
endothelin receptor antagonist activity / binding (in words) [1]: orally active non-peptidic antagonist

SMILES: CCCOc1ccc2c(c1)[C@@H](c1ccc(OC)cc1OCC(=O)O)[C@H](C(=O)O)[C@H]2c1ccc2c(c1)OCO2 [SB-209670]
affinity for ETB receptor (concentration range in words) [2]: nanomolar
affinity for ETA receptor (concentration range in words) [3]: subnanomolar

inhibition of endothelin receptor A (ETA) [5]: modest inhibition
inhibition of NF-κB [7]: modest inhibition
SMILES: Cc1coc2c1C(=O)C(=O)c1c-2ccc2c1CCCC2(C)C [compound 8, tanshinone IIA]
potency against carcinoma cell lines (in words) [4]: lack significant activity
inhibition of tumor cell lines [6]: modest inhibition
blocking of NFκB binding to κB consensus DNA [8]: block NFκB from binding to κB consensus DNA

SMILES: C=C1CCCc2c1ccc1c2C(=O)C(=O)c2c(C)coc2-1 [compound 9, methylene tanshinquinone]
potency against carcinoma cell lines (in words) [4]: more potent than any of the tanshindiols

SMILES: COC(=O)[C@@]1(C)CCCc2c1ccc1c2C(=O)C(=O)c2c(C)coc2-1 [compound 10, methyl tanshinonate]
potency against carcinoma cell lines (in words) [4]: equally potent as the tanshindiols

SMILES: Cc1coc2c1C(=O)C(=O)c1c-2ccc2c1CCCC2(C)CO (centres unmarked) [compound 11, tanshinone IIB]
potency against carcinoma cell lines (in words) [4]: very little activity

SMILES: Cc1cccc2c1ccc1c3occ(C)c3c(=O)oc21 [compound 20, neo-tanshinlactone]
potency relative to tamoxifen citrate ([9]; breast cancer, in some cases): ten times more potent
selectivity relative to tamoxifen citrate ([9]; breast cancer, in some cases): twenty times more selective
effectiveness against human cancer cell lines ([9]; several human cancer cell lines, particularly breast cancer): very effective

SMILES: COc1cc(OC)nc(O[C@H](C(=O)O)C(OC)(c2ccccc2)c2ccccc2)n1 [darusentan]
endothelin receptor antagonist activity / binding (in words) [1]: effective endothelin receptor antagonists

SMILES: Cc1coc2c1C(=O)C(=O)c1c-2ccc2c(C)cccc12 [tanshinone 17]
potency against carcinoma cell lines (in words) [4]: lack significant activity
